Patent publication US20250281497A1, “FUSED AMINO PYRIMIDINE COMPOUNDS FOR TREATMENT OF SEIZURE DISORDERS” (Ovid Therapeutics Inc., priority 2024, published 2025)

Set-up: species or system mice
Details: in vivo

Structure (SMILES): C[C@@H]1CN(c2nc3c(c(Nc4ccc(C5CCCCC5)cc4)n2)COC3)CCO1 [Compound A, (R)—N-(4-cyclohexylphenyl)-2-(2-methylmorpholino)-5,7-dihydrofuro[3,4-d]pyrimidin-4-amine]
- gross effects on mouse behavior, open field: no gross effects on mouse behavior
